Values after ≈ are worked out from the molar mass of the structure shown.
Experiments:
Bacillus spizizenii = assay: Antibacterial activity against Bacillus subtilis ATCC 6633 after 24 hrs by two fold serial dilution method; type: functional; details: ATCC 6633, 24 h
Shigella dysenteriae = assay: Antibacterial activity against Shigella dysenteriae after 24 hrs by two fold serial dilution method; type: functional
Salmonella typhi = assay: Antibacterial activity against Bacillus typhi after 24 hrs by two fold serial dilution method; type: functional, Salmonella enterica subsp. enterica serovar Typhi; details: Salmonella enterica
Micrococcus luteus = assay: Antibacterial activity against Micrococcus luteus ATCC 4698 after 24 hrs by two fold serial dilution method; type: functional; details: NCTC 2665, 24 h
Aspergillus flavus = assay: Antifungal activity against Aspergillus flavus after 24 hrs by two fold serial dilution method; type: functional
[1] = Antifungal activity against Candida utilis after 24 hrs by two fold serial dilution method; type: functional; details: Cyberlindnera jadinii
Escherichia coli [2] = assay: Antibacterial activity against Escherichia coli JM109 after 24 hrs by two fold serial dilution method; type: functional; details: JM109, 24 h
Staphylococcus aureus [3] = assay: Antibacterial activity against methicillin-resistant Staphylococcus aureus N315 after 24 hrs by two fold serial dilution method; type: functional; details: N315, 24 h
Staphylococcus aureus [4] = assay: Antibacterial activity against Staphylococcus aureus ATCC 25923 after 24 hrs by two fold serial dilution method; type: functional; details: ATCC 25923, 24 h
Proteus vulgaris = assay: Antibacterial activity against Bacillus proteus ATCC 13315 after 24 hrs by two fold serial dilution method; type: functional; details: ATCC 13315, 24 h
[5] = Antifungal activity against Candida mycoderma after 24 hrs by two fold serial dilution method; type: functional; details: Pichia norvegensis
Pseudomonas aeruginosa = assay: Antibacterial activity against Pseudomonas aeruginosa ATCC 27853 after 24 hrs by two fold serial dilution method; type: functional; details: ATCC 27853, 24 h
Candida albicans = assay: Antifungal activity against Candida albicans ATCC 76615 after 24 hrs by two fold serial dilution method; type: functional; details: ATCC 76615, 24 h
Escherichia coli [6] = assay: Antibacterial activity against Escherichia coli DH52 after 24 hrs by two fold serial dilution method; type: functional; details: DH52, 24 h
Saccharomyces cerevisiae = assay: Antifungal activity against Beer yeast after 24 hrs by two fold serial dilution method; type: functional

Compound	MIC (Bacillus spizizenii) [µg/mL]	MIC (Shigella dysenteriae) [µg/mL]	MIC (Salmonella typhi) [µg/mL]	MIC (Micrococcus luteus) [µg/mL]	MIC80 (Aspergillus flavus) [µg/mL]	MIC80 [1] [µg/mL]	MIC (Escherichia coli [2]) [µg/mL]	MIC (Staphylococcus aureus [3]) [µg/mL]	MIC (Staphylococcus aureus [4]) [µg/mL]	MIC (Proteus vulgaris) [µg/mL]	MIC80 [5] [µg/mL]	MIC (Pseudomonas aeruginosa) [µg/mL]	MIC80 (Candida albicans) [µg/mL]	MIC (Escherichia coli [6]) [µg/mL]	MIC80 (Saccharomyces cerevisiae) [µg/mL]
CCCCCCCCCCn1cc(-c2cnc(N)s2)c(=O)c2cc(F)cc(F)c21	256 (≈ 610 µM)	64 (≈ 153 µM)	256 (≈ 610 µM)	128 (≈ 305 µM)	64 (≈ 153 µM)	128 (≈ 305 µM)	64 (≈ 153 µM)	256 (≈ 610 µM)	512 (≈ 1220 µM)	128 (≈ 305 µM)	64 (≈ 153 µM)	64 (≈ 153 µM)	64 (≈ 153 µM)	64 (≈ 153 µM)	64 (≈ 153 µM)
Nc1ncc(-c2cn(Cc3cccc(Cl)c3)c3c(F)cc(F)cc3c2=O)s1	256 (≈ 634 µM)	128 (≈ 317 µM)	32 (≈ 79.2 µM)	128 (≈ 317 µM)	64 (≈ 158 µM)	256 (≈ 634 µM)	256 (≈ 634 µM)	128 (≈ 317 µM)	64 (≈ 158 µM)	256 (≈ 634 µM)	64 (≈ 158 µM)	64 (≈ 158 µM)	128 (≈ 317 µM)	32 (≈ 79.2 µM)	64 (≈ 158 µM)
CCn1cc(C(=O)O)c(=O)c2cc(F)c(N3CCNCC3)cc21 [NORFLOXACIN]	4 (≈ 12.5 µM)	16 (≈ 50.1 µM)	4 (≈ 12.5 µM)	2 (≈ 6.26 µM)			1 (≈ 3.13 µM)	8 (≈ 25.1 µM)	2 (≈ 6.26 µM)	8 (≈ 25.1 µM)		16 (≈ 50.1 µM)		1 (≈ 3.13 µM)	
O=C(N[C@H](CO)[C@H](O)c1ccc([N+](=O)[O-])cc1)C(Cl)Cl [CHLORAMPHENICOL]	32 (≈ 99 µM)	16 (≈ 49.5 µM)	32 (≈ 99 µM)	8 (≈ 24.8 µM)			32 (≈ 99 µM)	16 (≈ 49.5 µM)	16 (≈ 49.5 µM)	32 (≈ 99 µM)		32 (≈ 99 µM)		32 (≈ 99 µM)	
OC(Cn1cncn1)(Cn1cncn1)c1ccc(F)cc1F [FLUCONAZOLE]					256 (≈ 836 µM)	8 (≈ 26.1 µM)					4 (≈ 13.1 µM)		1 (≈ 3.27 µM)		16 (≈ 52.2 µM)
Nc1ncc(-c2cn(Cc3ccccc3Cl)c3c(F)cc(F)cc3c2=O)s1	256 (≈ 634 µM)	64 (≈ 158 µM)	128 (≈ 317 µM)	64 (≈ 158 µM)	64 (≈ 158 µM)	64 (≈ 158 µM)	128 (≈ 317 µM)	64 (≈ 158 µM)	128 (≈ 317 µM)	256 (≈ 634 µM)	64 (≈ 158 µM)	32 (≈ 79.2 µM)	128 (≈ 317 µM)	128 (≈ 317 µM)	128 (≈ 317 µM)
Nc1ncc(-c2cn(Cc3cccc(F)c3)c3c(F)cc(F)cc3c2=O)s1	128 (≈ 330 µM)	64 (≈ 165 µM)	32 (≈ 82.6 µM)	128 (≈ 330 µM)	64 (≈ 165 µM)	64 (≈ 165 µM)	128 (≈ 330 µM)	32 (≈ 82.6 µM)	64 (≈ 165 µM)	32 (≈ 82.6 µM)	32 (≈ 82.6 µM)	64 (≈ 165 µM)	64 (≈ 165 µM)	128 (≈ 330 µM)	64 (≈ 165 µM)
Nc1ncc(-c2cn(Cc3ccccc3F)c3c(F)cc(F)cc3c2=O)s1	64 (≈ 165 µM)	32 (≈ 82.6 µM)	8 (≈ 20.7 µM)	64 (≈ 165 µM)	32 (≈ 82.6 µM)	128 (≈ 330 µM)	64 (≈ 165 µM)	64 (≈ 165 µM)	32 (≈ 82.6 µM)	128 (≈ 330 µM)	64 (≈ 165 µM)	128 (≈ 330 µM)	64 (≈ 165 µM)	64 (≈ 165 µM)	64 (≈ 165 µM)
Nc1ncc(-c2cn(Cc3ccc([N+](=O)[O-])cc3)c3c(F)cc(F)cc3c2=O)s1	128 (≈ 309 µM)	256 (≈ 618 µM)	64 (≈ 154 µM)	128 (≈ 309 µM)	64 (≈ 154 µM)	256 (≈ 618 µM)	128 (≈ 309 µM)	128 (≈ 309 µM)	256 (≈ 618 µM)	128 (≈ 309 µM)	128 (≈ 309 µM)	64 (≈ 154 µM)	32 (≈ 77.2 µM)	32 (≈ 77.2 µM)	64 (≈ 154 µM)
CCCCCn1cc(-c2cnc(N)s2)c(=O)c2cc(F)cc(F)c21	64 (≈ 183 µM)	16 (≈ 45.8 µM)	16 (≈ 45.8 µM)	128 (≈ 366 µM)	16 (≈ 45.8 µM)	64 (≈ 183 µM)	64 (≈ 183 µM)	32 (≈ 91.6 µM)	256 (≈ 733 µM)	64 (≈ 183 µM)	32 (≈ 91.6 µM)	16 (≈ 45.8 µM)	64 (≈ 183 µM)	32 (≈ 91.6 µM)	128 (≈ 366 µM)
Nc1ncc(-c2cn(Cc3ccc(F)cc3)c3c(F)cc(F)cc3c2=O)s1	128 (≈ 330 µM)	4 (≈ 10.3 µM)	16 (≈ 41.3 µM)	16 (≈ 41.3 µM)	32 (≈ 82.6 µM)	64 (≈ 165 µM)	16 (≈ 41.3 µM)	16 (≈ 41.3 µM)	32 (≈ 82.6 µM)	64 (≈ 165 µM)	16 (≈ 41.3 µM)	64 (≈ 165 µM)	32 (≈ 82.6 µM)	32 (≈ 82.6 µM)	32 (≈ 82.6 µM)
CCCCCCCn1cc(-c2cnc(N)s2)c(=O)c2cc(F)cc(F)c21	64 (≈ 170 µM)	32 (≈ 84.8 µM)	64 (≈ 170 µM)	256 (≈ 678 µM)	64 (≈ 170 µM)	64 (≈ 170 µM)	128 (≈ 339 µM)	128 (≈ 339 µM)	256 (≈ 678 µM)	32 (≈ 84.8 µM)	256 (≈ 678 µM)	32 (≈ 84.8 µM)	32 (≈ 84.8 µM)	32 (≈ 84.8 µM)	16 (≈ 42.4 µM)

Source: ChEMBL document CHEMBL3875175, “Multi-targeting exploration of new 2-aminothiazolyl quinolones: Synthesis, antimicrobial evaluation, interaction with DNA, combination with topoisomerase IV and penetrability into cells” (Eur J Med Chem, 2016)
